Among the data in patent US8436014B2, “Solid forms of N-(4-(7-azabicyclo[2.2.1]heptan-7-yl)-2-(trifluorormethyl)phenyl)-4-oxo-5-(trifluoromethyl)-1,4-dihyroquinoline-3-carboxamide” (Vertex Pharmaceutical Incorporated, priority 2008, dated 2013) are EC50 values, retold here.

The test deals with T1, ΔF508-CFTR (Homo sapiens, UniProt P13569, DEL508-508).
T1 construct: expressed in transfected cells
Briefly: Membrane potential optical assay for ΔF508-CFTR potentiation (FLIPR III, voltage sensing dyes). In kind it is cell-based. The note with it: assay not named in the result sentence. The source says: Membrane Potential Optical Methods for Assaying ΔF508-CFTR Modulation Properties of Compounds
The assay utilizes fluorescent voltage sensing dyes to measure changes in membrane potential using a fluorescent plate reader (e.g., FLIPR III, Molecular Devices, Inc.) as a readout for increase in functional ΔF508-CFTR in NIH 3T3 cells. The driving force for the response is the creation of a chloride ion gradient in conjunction with channel activation by a single liquid addition step after the cells have previously been treated with compounds and subsequently loaded with a voltage sensing dye.
To identify potentiators of ΔF508-CFTR, a double-addition HTS assay format was developed. This HTS assay utilizes fluorescent voltage sensing dyes to measure changes in membrane potential on the FLIPR III as a measurement for increase in gating (conductance) of ΔF508 CFTR in temperature-corrected ΔF508 CFTR NIH 3T3 cells. The driving force for the response is a Cl− ion gradient in conjunction with channel activation with forskolin in a single liquid addition step using a fluoresecent plate reader such as FLIPR III after the cells have previously been treated with potentiator compounds (or DMSO vehicle control) and subsequently loaded with a redistribution dye.
Solutions • Bath Solution #1: (in mM) NaCl 160, KCl 4.5, CaCl2 2, MgCl2 1, HEPES 10, pH 7.4 with NaOH. […]

Each structure is given as a SMILES string. Where only a bound is given, the exact number is not on record here.

T1 sequence (P13569 with tags, fused parts or gaps DEL508-508): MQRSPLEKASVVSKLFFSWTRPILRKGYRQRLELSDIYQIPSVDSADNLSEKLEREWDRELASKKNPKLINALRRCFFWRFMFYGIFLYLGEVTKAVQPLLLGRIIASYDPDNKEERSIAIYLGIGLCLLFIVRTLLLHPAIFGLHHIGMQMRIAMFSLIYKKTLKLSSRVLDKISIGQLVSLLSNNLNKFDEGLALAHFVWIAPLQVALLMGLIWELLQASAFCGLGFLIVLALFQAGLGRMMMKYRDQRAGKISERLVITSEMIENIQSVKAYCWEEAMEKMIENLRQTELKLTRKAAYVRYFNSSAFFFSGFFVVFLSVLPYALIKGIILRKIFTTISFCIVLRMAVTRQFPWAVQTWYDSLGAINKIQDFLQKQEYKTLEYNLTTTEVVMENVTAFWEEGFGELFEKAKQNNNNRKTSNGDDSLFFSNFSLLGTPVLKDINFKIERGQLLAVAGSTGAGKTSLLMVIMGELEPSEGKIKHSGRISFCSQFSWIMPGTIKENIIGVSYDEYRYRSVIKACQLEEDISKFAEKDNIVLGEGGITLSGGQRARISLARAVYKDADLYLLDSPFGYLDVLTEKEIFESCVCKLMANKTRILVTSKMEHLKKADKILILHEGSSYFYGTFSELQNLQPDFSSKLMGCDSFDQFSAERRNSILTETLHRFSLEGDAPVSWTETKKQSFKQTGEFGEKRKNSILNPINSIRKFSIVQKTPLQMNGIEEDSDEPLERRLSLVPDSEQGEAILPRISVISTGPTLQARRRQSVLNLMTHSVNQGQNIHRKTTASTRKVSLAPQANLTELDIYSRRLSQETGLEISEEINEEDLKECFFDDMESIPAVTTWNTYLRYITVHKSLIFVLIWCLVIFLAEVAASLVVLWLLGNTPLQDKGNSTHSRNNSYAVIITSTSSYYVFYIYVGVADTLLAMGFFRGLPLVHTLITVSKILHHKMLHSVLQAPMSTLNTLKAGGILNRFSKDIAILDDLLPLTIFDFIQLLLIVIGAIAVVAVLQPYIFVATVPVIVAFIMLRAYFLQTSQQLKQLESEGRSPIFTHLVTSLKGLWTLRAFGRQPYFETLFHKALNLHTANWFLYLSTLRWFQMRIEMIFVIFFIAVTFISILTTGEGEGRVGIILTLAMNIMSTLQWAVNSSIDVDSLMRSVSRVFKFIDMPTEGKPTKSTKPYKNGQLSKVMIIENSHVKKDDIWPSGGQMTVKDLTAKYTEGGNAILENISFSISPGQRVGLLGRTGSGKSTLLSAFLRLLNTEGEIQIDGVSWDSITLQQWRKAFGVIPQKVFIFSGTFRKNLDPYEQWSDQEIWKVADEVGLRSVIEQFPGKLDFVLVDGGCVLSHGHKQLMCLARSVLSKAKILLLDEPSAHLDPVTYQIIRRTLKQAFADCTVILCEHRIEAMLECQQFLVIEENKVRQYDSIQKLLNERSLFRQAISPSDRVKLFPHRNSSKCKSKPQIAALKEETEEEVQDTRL

In general, EC50 refers to the concentration needed to bring the measured effect to its halfway point. Take `O=C(Nc1ccc(N2C3CCC2CC3)cc1C(F)(F)F)c1c[nH]c2cccc(C(F)(F)F)c2c1=O` [Compound 1 Form A, N-(4-(7-azabicyclo[2.2.1]heptan-7-yl)-2-(trifluoromethyl)phenyl)-4-oxo-5-(trifluoromethyl)-1,4-dihydroquinoline-3-carboxamide]: the EC50 is less than 2 µM.
